Measurements as given in ChEMBL document CHEMBL1146127, “Aminobenzisoxazoles with biaryl P4 moieties as potent, selective, and orally bioavailable factor Xa inhibitors” (Bioorg Med Chem Lett, 2006).

What was measured:
in vivo [1] = conditions: dog, iv, 0.4 mg/kg
in vivo [2] = conditions: dog, iv, 0.4 mg/kg; remark: listed apart in the source
in vivo [3] = conditions: dog
in vivo [4] = conditions: dog, po, 0.2 mg/kg

clearance (in vivo [1]): 28.3 mL/min/kg | Vd (in vivo [2]): 23 L/kg | half-life (in vivo [3]): 10 h | bioavailability (in vivo [4]): 64%
SMILES: Nc1noc2ccc(-n3nc(C(F)(F)F)cc3C(=O)Nc3ccc(-c4ccccc4CN4CCCC4)cc3F)cc12
